Patent US12048686B2, “Compositions and methods for activating NRF2-dependent gene expression” (The University of Chicago, priority 2018, dated 2024)

Tests used:
KEAP1 [1] = assay: Western blot of KEAP1 / HMW-KEAP1 formation in treated cells (HEK293T FLAG-KEAP1, IMR32); assay type: cell-based, human
Description: FLAG-tagged Protein Expression and Western Blotting. Full-length, human PGK1 (NM_000291, Origene) transiently expressed from a pCMV6 entry vector with a C-terminal Myc-DDK tag; full-length, human KEAP1 (28023, Addgene) was transiently expressed from a pcDNA/FRT/TO plasmid with a C-terminal 3×FLAG tag. All references to FLAG-PGK1 or FLAG-KEAP1 represent the proteins in the aforementioned vectors, respectively. Transient protein expression was performed in confluent 10 cm plates of HEK293T cells by transfection of 1 μg plasmid with Lipofectamine 2000 (Invitrogen) according to manufacturer's protocol. For in situ compound or metabolite treatment experiments, compounds were added approximately 24 hours after transfection, and incubated for the indicated duration. For FLAG-KEAP1 western blotting and immunoprecipitation experiments, cells were harvested by scraping, pelleted by centrifugation, washed twice with PBS and lysed in 8 M urea, 50 mM NH4HCO3, phosphatase inhibitor cocktail (Sigma Aldrich), and EDTA-free complete protease inhibitor (Roche), pH 8.0, at 4° C. Lysate was sonicated (Fisher Scientific FB-505), insoluble debris cleared by centrifugation, and the supernatant was diluted into 4× Laemmli buffer containing 50 mM dithiothreitol (DTT) as a reducing agent. Samples were prepared for SDS-PAGE by heating to 95° C. for 5 minutes, cooled to room temperature, resolved on NuPAGE Novex 4-12% Bis-Tris Protein Gels (Invitrogen), and transferred onto nitrocellulose membranes by standard western blotting methods. Membranes were blocked in 2% BSA in TBS containing 0.1% tween-20 (TBST) and probed with primary and secondary antibodies. Primary antibodies used in this study include: anti-FLAG-M2 (1:1000, F1804, Sigma Aldrich), anti-KEAP1 (1:500, SC-15246, Santa Cruz), anti-HSPA1A (1:1000, 4872, Cell Signaling), anti-ACTB (1:1000, 4790, Cell Signaling), anti-GAPDH (1:1000, 2118S, Cell Signaling) and TUBG (1:1000, 5886, Cell Signaling). […]

KEAP1 [2] = molecular target: T1, KEAP1 (Homo sapiens, UniProt Q14145); assay: Targeted proteomic analysis of crosslinked KEAP1 peptides; assay type: cell-based; settings: gel-isolated HMW-KEAP1 vs monomeric KEAP1
T1 construct: full-length, human KEAP1 (28023, Addgene) was transiently expressed from a pcDNA/FRT/TO plasmid with a C-terminal 3×FLAG tag; host or cells: HEK293T
T1 sequence (Q14145 whole entry): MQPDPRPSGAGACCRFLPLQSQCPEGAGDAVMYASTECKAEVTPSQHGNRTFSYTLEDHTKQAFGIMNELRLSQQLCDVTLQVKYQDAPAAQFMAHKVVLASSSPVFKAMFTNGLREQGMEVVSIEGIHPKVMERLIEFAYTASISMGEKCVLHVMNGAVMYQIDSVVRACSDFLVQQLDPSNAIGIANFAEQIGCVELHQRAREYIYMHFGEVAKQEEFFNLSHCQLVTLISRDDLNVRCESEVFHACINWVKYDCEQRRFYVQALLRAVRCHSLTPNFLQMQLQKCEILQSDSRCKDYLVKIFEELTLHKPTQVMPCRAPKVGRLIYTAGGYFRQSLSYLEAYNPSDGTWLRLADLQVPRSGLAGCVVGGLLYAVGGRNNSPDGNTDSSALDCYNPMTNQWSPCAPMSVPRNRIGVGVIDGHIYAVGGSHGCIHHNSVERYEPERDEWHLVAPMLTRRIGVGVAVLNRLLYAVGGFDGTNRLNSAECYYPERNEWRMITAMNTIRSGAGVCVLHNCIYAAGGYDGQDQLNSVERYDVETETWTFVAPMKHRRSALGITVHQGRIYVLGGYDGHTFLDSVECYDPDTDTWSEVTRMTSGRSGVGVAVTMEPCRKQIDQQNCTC
Description: In-gel digestion of KEAP1 Targeted proteomic analyses of KEAP1 protein were performed by running anti-FLAG enriched HMW-KEAP1 and LMW-KEAP1 (from both CBR-470-1 or MGx treatments as above) on SDS-PAGE gels, and isolated gel pieces were digested in-gel with sequencing grade trypsin (Promega), as previously reported^35. Tryptic peptides from in-gel tryptic digestions were dissolved in 100 mM Tris-HCl, pH 8.0, with 2 mM of CaCl2), and further digested with mass spectrometry-grade chymotrypsin (Thermo Scientific) according to manufacturer's protocol. Chymotryptic digestion reactions were stopped by acidification, and desalted on Ziptip C18 tips.
Targeted proteomic analysis of crosslinked KEAP1 peptides. Double digested KEAP1 peptides from isolated HMW-KEAP1 and monomeric KEAP1 were analyzed by LC-MS/MS on an Easy-nLC 1000 ultra-high pressure LC system coupled to a Q Exactive HF orbitrap and Easy-Spray nanosource as indicated above. Candidate peptides were initially searched by manual inspection of chromatograms and MS1 spectra for m/z values of peptide candidates from predicted digestion sites, crosslink sites and differential presence in HMW- and monomeric KEAP1 from both CBR-470-1 and MGx treated samples. Extracted MS1 ions of the candidates were present in HMW-KEAP1 digests but not in LMW-KEAP1 digests. […]

HCT116 = assay: Viability of HCT116 with genetic manipulation of GLO1 and PGK1; assay type: cell-based

Compound	formation of HMW-KEAP1 (KEAP1 [1]; treatment of cell lysates or live cells with metabolite)	MICA crosslinked C151-R135 KEAP1 peptide (KEAP1 [2])	viability sensitivity of PGK1 knockdown cells (HCT116; HCT116, PGK1 knockdown)	viability sensitivity of cells acclimated to low GLO1 levels (HCT116; HCT116, low GLO1)	KEAP1 levels and α-pgK immunoreactive bands (KEAP1 [1]; IMR32 cells, 30 minutes)	high molecular weight KEAP1 (HMW-KEAP1) band (KEAP1 [1]; Western blot of treated cells)
CC(=O)C=O [MGx, methylglyoxal, reference compound]	selective formation of HMW-KEAP1	MICA crosslink between C151 and R135 was identified in isolated HMW-KEAP1				
CC(C)CN[C@H]1CS(=O)(=O)C[C@@H]1S(=O)(=O)c1ccc(Cl)cc1 [CBR-470-1]		MICA crosslink between C151 and R135 was identified in isolated HMW-KEAP1	more sensitive to CBR-470-1 metabolic inhibition	resistance to CBR-470-1 metabolic inhibition	did not result in altered KEAP1 levels, or any α-pgK immunoreactive bands	dose-dependent, high molecular weight KEAP1 (HMW-KEAP1) band
